8 molecules from US5612350A, “Macrocyclic immunomodulators with novel cyclohexyl ring replacements” (Abbott Laboratories, priority 1995, dated 1997) can be followed below.

The first experiment deals with human mixed lymphocyte reaction (MLR). Put plainly: human mixed lymphocyte reaction (MLR) assay, immunosuppressant activity. Particulars: Table 1. It is filed as cell-based. On the procedure: In Vitro Assay of Biological Activity
The immunosuppressant activity of the compounds of the present invention was determined using the human mixed lymphocyte reaction (MLR) assay described by. T. Kinoet al. in Transplantation Proceedings, XIX(5):36-39, Suppl. 6 (1987).
The term IC50 denotes the midpoint of a concentration-inhibition curve. Low readings indicate greater potency, high ones weaker potency. The molecule `CC[C@@H]1/C=C(\C)C[C@H](C)C[C@H](OC)[C@H]2O[C@@](O)(C(=O)C(=O)N3CCCC[C@H]3C(=O)O[C@H](/C(C)=C/[C@@H](CCO)CCC(=O)NCc3ccccc3)[C@H](C)[C@@H](O)CC1=O)[C@H](C)C[C@@H]2OC` [Example 7] returned an IC50 of 23 nM.

Regarding `CC[C@@H]1/C=C(\C)C[C@H](C)C[C@H](OC)[C@H]2O[C@@](O)(C(=O)C(=O)N3CCCC[C@H]3C(=O)O[C@H](/C(C)=C/[C@H]3CCOC(=O)CC3)[C@H](C)[C@@H](O)CC1=O)[C@H](C)C[C@@H]2OC` [Example 11], inhibition was half-maximal at 1.1 nM (IC50).

The molecule `CCCNC(=O)CC[C@@H](/C=C(\C)[C@H]1OC(=O)[C@@H]2CCCCN2C(=O)C(=O)[C@]2(O)O[C@H]([C@@H](OC)C[C@@H](C)C/C(C)=C/[C@@H](CC)C(=O)C[C@H](O)[C@H]1C)[C@@H](OC)C[C@H]2C)CCO` [Example 13] displayed an IC50 of 388 nM.

On to `CC[C@@H]1/C=C(\C)C[C@H](C)C[C@H](OC)[C@H]2O[C@@](O)(C(=O)C(=O)N3CCCC[C@H]3C(=O)O[C@H](/C(C)=C/[C@@H](CCO)CCC(=O)NCCO)[C@H](C)[C@@H](O)CC1=O)[C@H](C)C[C@@H]2OC` [Example 9], for which the IC50 was 65 nM.

On to `CC[C@@H]1/C=C(\C)C[C@H](C)C[C@H](OC)[C@H]2O[C@@](O)(C(=O)C(=O)N3CCCC[C@H]3C(=O)O[C@H](/C(C)=C/[C@@H]3CCNC(=O)OCC3)[C@H](C)[C@@H](O)CC1=O)[C@H](C)C[C@@H]2OC` [Example 37], for which 0.57 nM corresponded to half-maximal inhibition (IC50).

Take `CC[C@@H]1/C=C(\C)C[C@H](C)C[C@H](OC)[C@H]2O[C@@](O)(C(=O)C(=O)N3CCCC[C@H]3C(=O)O[C@H](/C(C)=C/[C@@H]3CCC(=O)N4CCSC4C3)[C@H](C)[C@@H](O)CC1=O)[C@H](C)C[C@@H]2OC` (some centres unmarked) [Example 39]: it took 37 nM to reach half-maximal inhibition (IC50).

As for `CC[C@@H]1/C=C(\C)C[C@H](C)C[C@H](OC)[C@H]2O[C@@](O)(C(=O)C(=O)N3CCCC[C@H]3C(=O)O[C@H](/C(C)=C/C3CCN(C(=O)N4CCOCC4)CC3)[C@H](C)[C@@H](O)CC1=O)[C@H](C)C[C@@H]2OC` [Example 56], half-maximal inhibition (IC50) required 2.6 nM.

The experiment is the same for the next values; noted with them: Table 1, at 1 × 10^-6 (M), read-out: 25% at 1 × 10^-6 (in the IC50 (M) column).
As to `CC[C@@H]1/C=C(\C)C[C@H](C)C[C@H](OC)[C@H]2O[C@@](O)(C(=O)C(=O)N3CCCC[C@H]3C(=O)O[C@H](/C(C)=C/[C@@H](CCO)CCC(=O)N3CCOCC3)[C@H](C)[C@@H](O)CC1=O)[C@H](C)C[C@@H]2OC` [Example 15], the inhibition at 1 µM worked out at 25%.
